Experimental data taken from US9669078B2, “PD-L1 based immunotherapy” (Herlev Hospital, priority 2011, dated 2017).
Entries after “also recorded” stand apart in the source; their conditions may differ. Where two headings read alike, the source gives them in different places.

Tests used:
[1] = test system: autologous matured DC (mDC); assay: 51Cr-release cytotoxicity assay, autologous matured DC; type: cell-based, human; conditions: mDC transfected by electroporation
Description: DC were generated from PBMC by adherence on culture dishes at 37° C. for 1-2 hr. in RPMI-1640. Adherent monocytes were cultured in RPMI-1640 supplemented with 10% fetal calf serum in the presence of IL-4 (250 U/ml) and GM-CSF (1000 U/ml) for 6 days. DC were matured by addition of […] (1000 U/ml), IL-6 (1000 U/ml) TNF-α (1000 U/ml) and PGE2 (1 ug/ml).
(§1) Conventional ^51Cr-release assays for CTL-mediated cytotoxicity were carried out as described in Andersen et al., J Immunol 1999. Target cells were T2-cells, HLA-A2^+ EBV transformed B-cell line (KIG-BCL), autologous matured DC (mDC), HLA-A2^+ melanoma cell lines (MM1312.07 and MM.909.06) with or without IFN-γ (100 U/ml) addition for 2 days. T2-cells and KIG-BCL were pulsed with PD-L1 recombinant protein (Sin θ Biological Inc.) for 3 hr. at 37° C. prior addition of chromium. Lysis of T2-cells was blocked using anti HLA-A2 FITC conjugated antibody (2 ug/100 ul, BD Biosciences).
(§2) Stealth siRNA duplex for targeted silencing of PD-L1 and recommended Stealth siRNA negative control duplex for medium GC content were obtained from Invitrogen (Invitrogen, Paisley, UK). The Stealth PD-L1 siRNA duplex consisted of the sense sequence 5′-[…]3′ (SEQ ID NO: 21) and the anti-sense sequence 5′-[…]-3′ (SEQ ID NO:22). For PD-L1 silencing experiments, mDC were transfected with PD-L1 siRNA using electroporation parameters.

[2] = test system: PD-L1 surface expression on mDC; assay: Flow cytometry of PD-L1 surface expression on mDC; type: cell-based, human; conditions: 24 hr after transfection; 0.05, 0.10 and 0.25 nmol
Description: as §2
(§3) Flow cytometry analysis was performed on a FACSCANTO II (BD Biosciences, San Jose Calif., USA) to determine PD-L1 surface expression on mDC before and after siRNA targeted silencing, T2-cells, KIG-BCL and HLA-A2^+ melanoma cell lines (MM1312.07 and MM.909.06) with or without IFN-γ treatment. Cells were washed in PBS/1% BSA and subsequently stained either with FITC- or PE-Cy5-conjugated anti-PD-L1 monoclonal antibody for 30 min on ice in PBS/1% BSA. Nonreactive isotype-matched antibody (BD Biosciences) was used as control. Fluorescence analyses were performed using FACSDiva software (BD Biosciences) and FlowJo software (Tree Star, Ashland Oreg., USA).

PBMC [3] = assay: IFN-γ ELISPOT assay; type: cell-based, human; conditions: for specific T-cell responses, IFN-γ ELISPOT: PBMC from HLA-A2+ cancer patients (breast cancer, melanoma, renal cell carcinoma) stimulated once with peptide in vitro
Text: The ELISPOT assay was used to quantify peptide specific IFN-γ releasing effector cells as described previously (Andersen et al., 2001, Cancer Res. 61:869-872). In some experiments PBMC were stimulated once in vitro with peptide prior to analysis as described (McCutcheon et al., 1997, J Immunol Methods 210:149-166) to extend the sensitivity of the assay. Briefly, nitrocellulose bottomed 96-well plates (MultiScreen MAIP N45; Millipore) were coated overnight with IFN-γ capture mAb (Mabtech). The wells were washed, blocked by X-vivo medium and the effector cells (PBMC collected and when indicated stimulated as described above) were added in duplicates at different cell concentrations, with or without 10 μM peptide. The plates were incubated overnight. The following day, medium was discarded and the wells were washed prior to addition of the relevant biotinylated secondary Ab (Mabtech). The plates were incubated at room temperature (RT) for 2 hours, washed, and Avidin-enzyme conjugate (AP-Avidin; Calbiochem/Invitrogen Life Technologies) was added to each well. Plates were incubated at RT for 1 hour and the enzyme substrate NBT/BCIP (Invitrogen Life Technologies) was added to each well and incubated at RT for 5-10 min. Upon the emergence of dark purple spots, the reaction was terminated by washing with tap water. The spots were counted using the ImmunoSpot Series 2.0 Analyzer (CTL Analyzers).
(§4) In the present study the ELISPOT was performed according to the guidelines provided by CIP (http://cimt.eu/cimt/files/dl/cip_guidelines.pdf). In some experiments PBMC were stimulated once in vitro with peptide prior to analysis as described to extend the sensitivity of the assay. Briefly, nitrocellulose bottomed 96-well plates (MultiScreen MAIP N45; Millipore) were coated overnight with the relevant antibodies. The wells were washed, blocked by X-vivo medium and the effector cells were added if possible in triplicates otherwise in duplicates at different cell concentrations, with or without peptide. The plates were incubated overnight. The following day, medium was discarded and the wells were washed prior to addition of the relevant biotinylated secondary Ab (Mabtech), followed by the Avidin-enzyme conjugate (AP-Avidin; Calbiochem/Invitrogen Life Technologies) and finally the enzyme substrate NBT/BCIP (Invitrogen Life Technologies). The spots were counted using the ImmunoSpot Series 2.0 Analyzer (CTL Analyzers). Definition of an ELISPOT response was based on the guidelines and recommendations provided by CIP by an empirical or a statistical approach; the former implies setting a threshold to represent a biological response. […] The non-parametric Distribution free resampling (DFR) test gives a way of formally comparing antigen stimulated wells with negative control wells. As a minimum the ELISPOT assay must be performed at least in triplets. Furthermore, the non-parametric unpaired Mann-Whitney test was used to compare PD-L101-specific responders between cancer patients and healthy donors.

T2-cells = assay: 51Cr-release cytotoxicity assay, T2-cells; type: cell-based
Description: Conventional ^51Cr-release assays for CTL-mediated cytotoxicity were carried out as described elsewhere (Andersen et al., 1999). Target cells were T2 with and without PDL101 (FIG. 3a) and the HLA-A2+ breast cancer cell line the breast cancer cell line MDA-MB-231 (FIG. 3b) (available at the American Type Culture Collection (ATCC)).
as §1

[4] = test system: HLA-A2+ EBV transformed B-cell line (KIG-BCL); type: cell-based; conditions: 51Cr-release
Description: as §1

PBMC [5] = assay: TNF-α ELISPOT; type: cell-based, human; conditions: PBMC from IFN-γ-responding patients, triplicates
Description: In addition to determining the presence of specific T-cells using IFNγ as a marker, TNFα was also used as a marker. Thus, an ELISPOT assay was performed essentially as described above with the PDL101 peptide including a stimulation once in vitro with said peptide, except that TNFα antibodies were used in place of IFNγ antibodies. FIG. 2B show the results.
In the present study the ELISPOT was performed according to the guidelines provided by CIP (http://cimt.eu/cimt/files/dl/cip_guidelines.pdf). In some experiments PBMC were stimulated once in vitro with peptide prior to analysis as described to extend the sensitivity of the assay. Briefly, nitrocellulose bottomed 96-well plates (MultiScreen MAIP N45; Millipore) were coated overnight with the relevant antibodies. The wells were washed, blocked by X-vivo medium and the effector cells were added if possible in triplicates otherwise in duplicates at different cell concentrations, with or without peptide. The plates were incubated overnight. The following day, medium was discarded and the wells were washed prior to addition of the relevant biotinylated secondary Ab (Mabtech), followed by the Avidin-enzyme conjugate (AP-Avidin; Calbiochem/Invitrogen Life Technologies) and finally the enzyme substrate NBT/BCIP (Invitrogen Life Technologies). The spots were counted using the ImmunoSpot Series 2.0 Analyzer (CTL Analyzers). […]

PBMC [6] = assay: Granzyme B (GrB) ELISPOT; type: cell-based, human; conditions: PBMC from three melanoma patients (MM.03, MM.53, MM.135)
Description: as §4, with “As a minimum the ELISPOT assay must be performed at least in triplets. Furthermore, the non-parametric unpaired Mann-Whitney test was used to compare PD-L101-specific responders between cancer patients and healthy donors.” left out

HLA-A2 = assay: HLA peptide exchange technology and ELISA; type: binding, human; conditions: compared with high affinity epitopes HIV-1 pol476-484 and CMV pp65 pos495-503
Text: To evaluate the affinity of the HLA-peptide complex a UV exchange method was used in combination with a sandwich ELISA as previously described (19).

[7] = test system: PD-L101-specific, CD8 T-cells among PBMC; assay: HLA-A2/PD-L101 tetramer staining by flow cytometry; type: cell-based, human; conditions: for PD-L1-tetramer positive cells: after three in vitro re-stimulations
Description: Two PD-L101-specific T cell culture were established. PBMC from a breast cancer patient (CM.21) and from a melanoma (MM.05) patient were stimulated with irradiated PD-L101-loaded autologous DC. The following day IL-7 and IL-12 (PeproTech, London, UK) were added. […] The day after peptide stimulation IL-2 (PeproTech, London, UK) was added.
For multimer/tetramer staining, tetramers coupled with PE and APC were prepared using MHC-peptide exchange technology. […] Dead cell marker 7-AAD-PerCP (BD Bioscience) added prior to FACS analysis.

[8] = test system: PD-L101-specific T-cell bulk culture; assay: CD107a staining of T-cell bulk culture after peptide addition; type: cell-based, human; conditions: peptide added directly to T-cell bulk culture, FACS
Text: Subsequently, cells were stained with tetramer and surface markers and analysed FACSCANTO II (BD Biosciences, San Jose Calif., USA).

[9] = test system: HLA-A2+ melanoma cell line MM1312.07; assay: 51Cr-release cytotoxicity assay, MM1312.07; type: cell-based; conditions: IFN-γ (100 U/ml) for 2 days
Description: as §1

[10] = test system: HLA-A2+ melanoma cell line MM.909.06; assay: 51Cr-release cytotoxicity assay, MM.909.06; type: cell-based; conditions: IFN-γ (100 U/ml) for 2 days
Description: as §1

[11] = test system: PD-L1 surface expression on MM1312.07; assay: Flow cytometry of PD-L1 surface expression on MM1312.07; type: cell-based; conditions: FACS
Description: as §3

[12] = test system: PD-L1 surface expression on MM.909.06; assay: Flow cytometry of PD-L1 surface expression on MM.909.06; type: cell-based; conditions: FACS
Description: as §3

5′-CCUACUGGCAUUUGCUGAACGCAUU3′ (antisense AAUGCGUUCAGCAAAUGCCAGUAGG; listed as RNA, chemistry not given here) [PD-L1 siRNA]
killing of siRNA-transfected mDC by PD-L1-specific CTL cultures [1]: rescued the DC from being killed
PD-L1 protein surface expression on mDC after siRNA transfection [2]: reduced the level of PD-L1 protein expression

CLGVALTFI (PD-L1 peptide) [PDL111]
specific T-cell responses, IFN-γ ELISPOT (PBMC [3]): responses were detected

VILGAILLCL (PD-L1 peptide) [PDL114]
specific T-cell responses, IFN-γ ELISPOT (PBMC [3]): responses were detected

FMTYWHLLNAFTVTVPKDL (PD-L1 peptide) [PDLong1]
lysis of peptide- or protein-pulsed T2-cells by PD-L101-specific T-cell culture (T2-cells): take up, process and present
lysis of pulsed KIG-BCL by PD-L101-specific CTL [4]: recognized

ILKEPVHGV [HIV-1 pol476-484, reference compound]
lysis of peptide- or protein-pulsed T2-cells by PD-L101-specific T-cell culture (T2-cells): no cytotoxic was observed
lysis of pulsed KIG-BCL by PD-L101-specific CTL [4]: not killed

PD-L1 protein: PD-L1 recombinant protein (Sin θ Biological Inc.), full length, used to pulse T2-cells and KIG-BCL
lysis of peptide- or protein-pulsed T2-cells by PD-L101-specific T-cell culture (T2-cells): recognized and killed
lysis of pulsed KIG-BCL by PD-L101-specific CTL [4]: not recognized

LLNAFTVTV (PD-L1 peptide) [PD-L101]
specific T-cell responses, IFN-γ ELISPOT (PBMC [3]): Frequent and strong responses were detected
specific T-cell responses, IFN-γ ELISPOT (PBMC [3]; listed as PDL101): responses were detected
PD-L101-specific cells, IFN-γ ELISPOT directly ex vivo (PBMC [3]; PBMC of responding patients, without peptide stimulation in vitro): significant responses; also recorded: readily detectable ex vivo in selected patients
TNF-α release by PD-L101-specific cells, TNF-α ELISPOT (PBMC [5]): released TNF-α
GrB ELISPOT responses (DFR test) (PBMC [6]): could be detected in the three patients; also recorded: significant responses against PD-L101 in two of the patients
frequency of PD-L101-specific, GrB releasing cells (PBMC [6]): 100-300 PD-L101-specific, GrB releasing cells per 5×10^5 PBMC
binding to HLA-A2 (HLA-A2): comparable to the high-affinity control epitope
PD-L1-reactive T cells by HLA-A2/PD-L101 tetramer, directly ex vivo ([7]; PBMC from two PD-L101-responding patients (CM.21, MM.05)): detectable ex vivo in both patients
PD-L1-tetramer positive cells ([7]; T-cells from a breast cancer patient): 13.52%
PD-L1-tetramer positive cells ([7]; T-cells from a malignant melanoma patient): 0.17%
frequency of PD-L1-specific T-cells by tetramer after one in vitro peptide stimulation ([7]; both patients (CM.21, MM.05)): markedly increased the frequency
HLA-A2/PD-L101-tetramer+, CD107a+ cells [8]: distinct populations
lysis of peptide- or protein-pulsed T2-cells by PD-L101-specific T-cell culture (T2-cells): killed; also recorded: lysed T2-cells pulsed with PD-L101 efficiently
lysis of peptide- or protein-pulsed T2-cells by PD-L101-specific T-cell culture (T2-cells; listed as PDL01): efficiently presented
lysis of pulsed KIG-BCL by PD-L101-specific CTL [4]: recognized

VILGAILLCLGVALTFIFRLRKG (PD-L1 peptide) [PDLong2]
lysis of pulsed KIG-BCL by PD-L101-specific CTL [4]: not killed

B1: IFN-γ: cytokine added (100 U/ml, 2 days) to melanoma cell lines (protein, UniProt P01579 24-161, looked up)
Interferon gamma: QDPYVKEAENLKKYFNAGHSDVADNGTLFLGILKNWKEESDRKIMQSQIVSFYFKLFKNFKDDQSIQKSVETIKEDMNVKFFNSNKKKRDDFEKLTNYSVTDLNVQRKAIHELIQVMAELSPAAKTGKRKRSQMLFRG
effect of IFN-γ treatment on killing of MM1312.07 [9]: increased the killing of both melanoma cell lines
effect of IFN-γ treatment on killing of MM.909.06 [10]: increased the killing of both melanoma cell lines
effect of IFN-γ treatment on PD-L1 expression, MM1312.07 [11]: increased the expression of PD-L1 in both cell lines
effect of IFN-γ treatment on PD-L1 expression, MM.909.06 [12]: increased the expression of PD-L1 in both cell lines
